Measurements as given in patent US10723778B2, “Variants of adrenomedullin and calcitonin gene-related peptide and methods of use” (The Board of Regents of the University of Oklahoma, priority 2015, dated 2020).
Like-named read-outs stand apart in the source and are kept apart here. Where no end group is shown, it is not given here.

Assays:
[1] = target: T1, RAMP1-CLR ECD (CGRP); purified MBP-RAMP1 ECD-(GS)5-CLR ECD-H6 fusion protein (Homo sapiens, UniProt O60894+Q16602); assay: Fluorescence polarization (FP) peptide binding competition assay, CGRP receptor ECD complex; details: for Receptor Selectivity (in words): CGRP vs AM1 receptor ECD complexes; for Receptor Selectivity, fold for CGRP: CGRP (RAMP1-CLR ECD) over AM1 (RAMP2-CLR ECD)
T1 construct: MBP-hRAMP1.24-111-(Gly-Ser)5-hCLR.29-144-H6; made in house; host or cells: E. coli
Protocol: (§1) Fluorescence polarization peptide binding assay. […] The reactions (50 μL) were incubated for 2 hours at room temperature to reach equilibrium, and the anisotropy was measured in black half-area 96-well plates using a BMG LABTECH's POLARstar® Omega plate reader (Ortenberg, Germany). The reaction buffer was 50 mM HEPES, pH 7.5, 150 mM NaCl, 0.5 mg/ml fatty acid-free BSA, 0.5 mM EDTA, 0.5 mM maltose. Ki values were calculated using nonlinear regression fitting of the competition curves to the exact analytical equations of Roehrl et al. (Biochemistry (2004) 43:16056-66) using GraphPad Prism 5.0 (GraphPad Software, San Diego Calif.).
(§2) The ability of the indicated peptides to displace a FITC-Ahx-AM(37-52)NH2 [S45W, Q50W] probe (7 nM) from purified MBP-RAMP1 ECD-(GS)5-CLR ECD-H6 fusion protein (15 nM) was assessed by fluorescence polarization (anisotropy). The reactions were incubated for 2 hours at room temperature to reach equilibrium, and the anisotropy was measured in black half-area 96-well plates using a BMG LABTECH's POLARstar® Omega plate reader (Ortenberg, Germany). The reaction buffer was 50 mM HEPES, pH 7.5, 150 mM NaCl, 0.5 mg/ml fatty acid-free BSA, 0.5 mM EDTA, 0.5 mM maltose. KI values were calculated using nonlinear regression fitting of the competition curves to the exact analytical equations of Roehrl et al. (Biochemistry (2004) 43:16056-66) using GraphPad Prism 5.0 (GraphPad Software, San Diego Calif.).
as §2, with “Single representative experiments conducted with duplicate samples are shown. Error bars are S.E.M. The ability” for “The ability”, “displace a FITC-Ahx-AM(37-52)NH2[S45W, Q50W] probe” for “displace a FITC-Ahx-AM(37-52)NH2 [S45W, Q50W] probe”
A fluorescence polarization/anisotropy (FP) peptide-binding assay was developed using N-terminally FITC-labeled AM(37-52) S45W/Q50W as the probe, hereafter “FITC-AM W/W.” The probe was custom synthesized and HPLC-purified by RS Synthesis. The large size difference between the MBP-RAMP ECD-CLR ECD fusion proteins (˜65 kDa) and the probe (˜2.5 kDa) ensures a significant anisotropy difference between bound and free states of the probe. […] Kd values for the probe at each of the tethered ECD fusion proteins were determined in equilibrium saturation binding experiments (data not shown), and KI values were determined for unlabeled peptides in equilibrium competition experiments (Table 1; FIGS. 2-5). The data were analyzed according to exact analytical equations using non-linear regression curve fitting in GraphPad Prism 5.0 (GraphPad Software) via user-defined equations.

[2] = target: T2, RAMP2-CLR ECD (AM1); purified MBP-RAMP2 ECD [L106R]-(GS)5-CLR ECD-H6 fusion protein (Homo sapiens, UniProt O60895+Q16602, L106R); assay: Fluorescence polarization (FP) peptide binding competition assay, AM1 receptor ECD complex; details: for RAMP2-CLR ECD (AM1) KI (nM) / Ki: FP competition, FITC-AM W/W probe 7 nM, fusion protein 110 nM
T2 construct: MBP-hRAMP2.55-140 [L106R]-(Gly-Ser-Ala)3-hCLR.29-144-H6; made in house; host or cells: E. coli
Protocol: as §1
FIG. 3(A-K) depicts binding of (A) AM-based peptide AM(37-52)NH2, and variant peptide AM(37-52)NH2[S45W, Q50W]; (B) AM-based peptide AM(37-52)NH2, variant peptide AM(37-52)NH2[Q50F], and variant peptide AM(37-52)NH2[Q50W]; (C) variant peptides AM(37-52)NH2[K46L], AM(37-52)NH2[K46M], and AM(37-52)NH2[D39F]; (D) variant peptides AM(37-52)NH2[D39F, K46L, Q50W], AM(37-52)NH2[D39F, K46L, Q50W, Y52F], and AM(37-52)NH2[S45W, K46L, Q50W, Y52F]; (E) variant peptides AM(37-52)NH2[[D39K], AM(37-52)NH2[K46L, Q50W], and AM(37-52)NH2[K46L, Q50W, Y52F]; (F) variant peptides AM(37-52)NH2[S45W, K46M, Q50W, Y52F], and AM(37-52)NH2[S45W, K46W, Q50W, Y52F]; (G) variant peptides AM(37-52)NH2[S45T, K46W, Q50W], AM(37-52)NH2[S45T, K46L, Q50W], and AM(37-52)NH2[S45W, K46L, S48G, Q50W, Y52F]; (H) variant peptide AM(37-52)NH2[S45W, K46L, I47M, Q50W, Y52F]; (I) variant peptides AM(37-52)NH2[S45R, K46W, Q50W], and AM(37-52)NH2[S45R, K46L, Q50W]; (J) variant peptides AM(37-52)NH2[S45R, K46W, S48G, Q50W], AM(37-52)NH2[S45R, K46L, S48G, Q50W], and AM(37-52)NH2[S45R, K46W, I47L, S48G, Q50W]; and (K) variant peptides AM(37-52)NH2[D39W, Q50W], and AM(37-52)NH2[D37V, S45W, K46L, Q50W, Y52F], to the purified AM1 receptor extracellular domain complex. Single representative experiments conducted with duplicate samples are shown. […] The reactions were incubated for 2 hours at room temperature to reach equilibrium, and the anisotropy was measured in black half-area 96-well plates using a BMG LABTECH's POLARstar® Omega plate reader (Ortenberg, Germany). The reaction buffer was 50 mM HEPES, pH 7.5, 150 mM NaCl, 0.5 mg/ml fatty acid-free BSA, 0.5 mM EDTA, 0.5 mM maltose. KI values were calculated using nonlinear regression fitting of the competition curves to the exact analytical equations of Roehrl et al. (Biochemistry (2004) 43:16056-66) using GraphPad Prism 5.0 (GraphPad Software, San Diego Calif.).
as §1, with “Single representative experiments conducted with duplicate samples are shown.” for “Fluorescence polarization peptide binding assay.”, “reactions” for “reactions (50 μL)”, “KI” for “Ki”
A fluorescence polarization/anisotropy (FP) peptide-binding assay was developed using N-terminally FITC-labeled AM(37-52) S45W/Q50W as the probe, hereafter “FITC-AM W/W.” The probe was custom synthesized and HPLC-purified by RS Synthesis. The large size difference between the MBP-RAMP ECD-CLR ECD fusion proteins (˜65 kDa) and the probe (˜2.5 kDa) ensures a significant anisotropy difference between bound and free states of the probe. […] Kd values for the probe at each of the tethered ECD fusion proteins were determined in equilibrium saturation binding experiments (data not shown), and KI values were determined for unlabeled peptides in equilibrium competition experiments (Table 1; FIGS. 2-5).

[3] = target: T3, AMY1 receptor extracellular domain complex; purified MBP-RAMP1 ECD-(GS)5-CTR ECD-H6 fusion protein (Homo sapiens, UniProt O60894+P30988); assay: AlphaLISA luminescent peptide binding assay, AMY1 receptor ECD complex; details: displacement of Biotin-AC413 probe (100 nM), fusion protein 200 nM
T3 construct: purified MBP-RAMP1 ECD-(GS)5-CTR ECD-H6 fusion protein (200 nM); made in house; host or cells: HEK293T
Protocol: A single representative experiment conducted with duplicate samples is shown. Error bars are S.E.M. The ability of the indicated peptides to displace a Biotin-AC413 probe (100 nM) from purified MBP-RAMP1 ECD-(GS)5-CTR ECD-H6 fusion protein (200 nM) was assessed by AlphaLISA® luminescent peptide binding assay (Perkin-Elmer, Waltham, Mass.) as described in Lee et al. (J Biol. Chem (2016) 291:8686-8700). The reactions were incubated for 5 hours at room temperature to reach equilibrium, and the luminescence was measured in white 384-well plates using a BMG LABTECH's POLARstar® Omega plate reader (Ortenberg, Germany). The reaction buffer was 50 mM MOPS, pH 7.4, 150 mM NaCl, 7 mg/ml fatty acid-free BSA and the streptavidin-coated donor beads and MBP-antibody coated acceptor beads were at 15 μg/ml each. IC50 values were calculated using nonlinear regression fitting of the competition curves to a three-parameter, one-site competitive binding equation in GraphPad Prism 5.0 (GraphPad Software, San Diego Calif.).

[4] = FP competition, FITC-AM W/W probe 7 nM, fusion protein 15 nM
[5] = RAMP1-CLR ECD (CGRP) KI (nM), FP competition, FITC-AM W/W probe 7 nM, fusion protein 15 nM
[6] = read-out: RAMP2-CLR ECD (AM1) KI

Substance	RAMP2-CLR ECD (AM1) KI (nM) [2]	Ki [1, 5]	Receptor Selectivity (in words) ([1]; FP assay)	also measured
D39F: AM(37-52)NH2 scaffold variant peptide with D39F substitution (DKFNVAPRSKISPQGY-NH2) [Peptide D39F]	No binding			RAMP1-CLR ECD (CGRP) KI (nM) [1, 4]: No binding
DKDNVAPRSKISPFGY-NH2 [Peptide Q50F]		10500 nM		Receptor Selectivity, fold for AM1 ([2]; AM1 (RAMP2-CLR ECD) over CGRP (RAMP1-CLR ECD), FP assay): 5-fold for AM1
DKDNVAPRSLISPQGY [Peptide K46L]	No binding			RAMP1-CLR ECD (CGRP) KI (nM) [1, 4]: No binding
DKDNVAPRSMISPQGY [Peptide K46M]	No binding			RAMP1-CLR ECD (CGRP) KI (nM) [1, 4]: No binding
DKFNVAPRSLISPWGF-NH2 [D39F/K46L/Q50W/Y52F]		25 nM		Receptor Selectivity, fold for CGRP ([1]; FP assay): 1213-fold for CGRP; Ki ([2]; mean ± S.E.M, read-out: RAMP2-CLR ECD (AM1) pKI (converted)): 28200 nM
FVPTDVGPWAF-NH2 [N31D/S34P/K35W]	No binding	8.13 nM	CGRP	

Now from value to substance, other results behind:

RAMP2-CLR ECD (AM1) KI (nM) [2]	Ki [1, 5]	Receptor Selectivity (in words) ([1]; FP assay)	Substance	also measured
No binding	0.78 nM	CGRP (very selective)	DKDNVAPRWLMSPWGF-NH2 [S45W/K46L/I47M/Q50W/Y52F]	Ki ([1]; KI for the CGRP receptor ECD complex, FP assay): ~0.78 nM; RAMP2-CLR ECD (AM1) KI (nM) ([2]; listed as AM(37-52)NH2[S45W, K46L, I47M, Q50W, Y52F]): no binding
No binding	6.85 nM	CGRP	FVPTDTGPWGF-NH2 [N31D/V32T/S34P/K35W/A36G]	
	2.95 nM	CGRP over AM1	FVPTDVGPFSF-NH2 [N31D/S34P/K35F/A36S]	Ki [2, 6]: > 10000 nM
	1.32 nM		FVPTDVGPWSF-NH2 [N31D/S34P/K35W/A36S]	Receptor Selectivity, fold for CGRP ([1]; FP assay): 1856-fold for CGRP; IC50 [3]: 260 nM
	1.32 nM		FVPTDVGPWSY-NH2 [N31D/S34P/K35W/A36S/F37Y]	Receptor Selectivity, fold for CGRP ([1]; FP assay): 245-fold for CGRP; Ki [2, 6]: 324 nM
